Results from patent US20260183270A1, “PHARMACEUTICAL COMPOSITION COMPRISING AAK1 INHIBITOR” (Xizang Haisco Pharmaceutical Co., Ltd., priority 2022, published 2026).

Experiments:
AAK1 = molecular target: T1, AAK1 (Homo sapiens, UniProt Q2M2I8); assay: In vitro AAK1 enzyme activity assay (ADP-Glo); assay type: biochemical; conditions: read-out: Inhibitory activity against AAK1 IC50
T1 construct: purchased Signalchem A01-11G-10
Experimental: Compound stock solution (concentration: 10 mM, dissolved in DMSO) was diluted with DMSO to 0.2 mM and then diluted with DMSO in 5-fold gradient to obtain compound solutions with 10 concentrations. Subsequently, the compound solutions with different concentrations were diluted 50-fold in 1× kinase reaction buffer (containing 40 mM Tris, 20 mM MgCl2, 0.1% BSA and 0.5 mM DTT) for later use. AAK1 (Signalchem, Cat #A01-11G-10) was diluted with 1× kinase reaction buffer to 2-fold the final concentration (final concentrations: 30 nM and 28 nM). AAK1 was added to a 384-well white plate at 2 μL/well, and the compounds were then added at 1 μL/well. The plate was sealed with a plate-sealing film, centrifuged at 1000 rpm for 30 seconds and then placed at room temperature for 10 minutes. […] The RLU (Relative luminescence unit) signal values were read using a Biotek multimode microplate reader and the percent inhibition was calculated according to the following formula: [1−(LUMcompound−LUMpositive control)/(LUMnegative control−LUMpositive control)]×100. IC50 values were calculated using Graphpad 7.0 software using a four-parameter non-linear fit equation.

[1] = Mouse brain/blood ratio test; assay type: in vivo, ICR mice; conditions: mice
Experimental: male ICR mice, 20 to 25 g, 9 mice/compound. purchased from Chengdu Ddossy Experimental Animals Co., Ltd.
on the day of the experiment, 18 ICR mice were randomly grouped according to their body weights. The animals were fasted with water available for 12 to 14 h one day before the administration and were fed 4 h after the administration.
After intragastric administration, whole blood and brain tissue were collected at 0.5 h, 4 h and 24 h, and the whole blood was centrifuged to separate the plasma. The brain tissue was rinsed with cold physiological saline to remove the residual blood on the surface, drained out and then homogenized. Before analysis and detection, all samples were stored at −80 C, and the samples were quantitatively analyzed by LC-MS/MS.

hERG potassium channel = molecular target: T2, hERG potassium channel (Homo sapiens, UniProt Q12809); assay: Test for hERG potassium ion channel (manual whole cell patch-clamp, CHO cells); assay type: cell-based
T2 construct: expressed in transfected cells
Source text: Experimental platform: electrophysiological manual patch-clamp system
Cell line: Chinese hamster ovary (CHO) cell line stably expressing hERG potassium ion channel
Experimental method: in CHO (Chinese Hamster Ovary) cells stably expressing hERG potassium channel, the whole cell patch-clamp technique was used to record hERG potassium channel current at room temperature. The glass microelectrode was made of a glass electrode blank (BF150-86-10, Sutter) by a puller. The tip resistance after filling the liquid in the electrode was about 2-5 MΩ. The glass microelectrode can be connected to the patch-clamp amplifier by inserting the glass microelectrode into an amplifier probe. The clamping voltage and data recording were controlled and recorded by the pClamp 10 software through a computer. The sampling frequency was 10 kHz, and the filtering frequency was 2 kHz. […]
Data processing: data analysis processing was carried out by using pClamp 10, GraphPad Prism 5 and Excel software. The inhibition degree of hERG potassium current (peak value of hERG tail current induced at −50 mV) at different compound concentrations was calculated by the following formula: […]
Compound IC50 was calculated using GraphPad Prism 5 software by fitting according to the following equation: […]

[2] = tested on: SNL-induced mouse model of neuropathic pain; assay: Spinal nerve ligation (SNL)-induced mouse model of neuropathic pain, mechanical pain threshold (Von Frey); assay type: in vivo, C57BL/6J mice; conditions: for Course of analgesic efficacy over time / Effect on pain threshold (MPT) of mice after SNL modeling: 10 mg/kg intragastric; for Course of analgesic efficacy over time: 1 to 6 hours after administration; for Effect on pain threshold (MPT) of mice after SNL modeling: single administration, 1, 3 and 6 hours after administration
Source text: Male C57BL/6J mice (8 weeks old) purchased from Jinan Pengyue Experimental Animal Breeding Co., Ltd. were adaptively raised for one week and then the models were established. The specific establishment method comprises the following steps: • 1) disinfecting the surgical instrument and ligature; • 2) anesthetizing the mice with isoflurane and then placing the mice on the operating table in the prone position; • 3) shaving the fur near the hip bones of the mice and preparing the skin, and making an incision of about 2 cm along the spine; • 4) isolating the fascia along the spine, performing blunt dissection of the muscles, and exposing the transverse process of L5; • 5) carefully cutting the transverse process of L5 with forceps and exposing the L5 spinal nerve; • 6) carefully isolating the L5 nerve with a glass dissecting needle, and ligating the L5 nerve with a 5-0 ligature; and • 7) suturing the muscles and skin and disinfecting same with iodophor.
The mice that were unsuccessful in modeling were eliminated the next day after modeling (marker for successful modeling: mice with their hind paws curled up). After modeling, the mice were stroked for 3 to 5 minutes every day to ensure that the animals were familiar with the experimenter, and then the mice were placed on a metal pain measuring frame for 40 to 60 minutes of adaptation. After 3 days of acclimatization, Von Frey filaments (Aesthesio®; 0.16 g, 0.4 g, 0.6 g, 1.0 g, 1.4 g and 2.0 g) were used to test the pre-administration baseline values of the animals (Ascending testing approach). Each animal was tested twice and average values were taken, with intervals of at least 5 minutes. The animals were grouped according to the baseline values (10 animals per group). After the grouping, LX-9211 (1 and 10 mg/kg), compound 2 (1 and 10 mg/kg) or vehicle (40% PEG-400+10% ethanol+15% Tween 80+35% physiological saline) was administered intragastrically. The mice were tested for the mechanical pain threshold (MPT) at 1, 3 and 6 hours after the administration. Time-MPT curve was plotted using GraphPad 8.3.0, and statistical analysis was performed.

[3] = Pharmacokinetic test of dogs; assay type: in vivo; conditions: beagle dogs, i.g. (3 mg/kg)
Experimental: Experimental animals: male beagle dogs, about 8 to 11 kg, 6 beagle dogs/compound, purchased from Beijing Marshall Biotechnology Co., Ltd.
Experimental method: on the day of the experiment, 12 beagle dogs were randomly grouped according to their body weights. The animals were fasted with water available for 12 to 14 h one day before the administration and were fed 4 h after the administration. Administration was performed as per Table 2.
Before and after the administration, 1 ml of blood was taken from the jugular veins or limb veins, and placed in an EDTAK2 centrifuge tube. Centrifugation was performed at 5000 rpm at 4° C. for 10 min, and plasma was collected. Blood sampling time points for both the LX9211 intravenous administration group and intragastric administration group include: 0 min, 5 min, 15 min, 30 min, 1 h, 2 h, 4 h, 6 h, 8 h, 10 h, 12 h, and 24 h, and blood sampling time points for both the compound 9 intravenous administration group and intragastric administration group include: 0 min, 5 min, 15 min, 30 min, 1 h, 2 h, 4 h, 6 h, 8 h, 10 h, 12 h, 24 h, and 48 h. Before analysis and detection, all samples were stored at −80° C., and the samples were quantitatively analyzed by LC-MS/MS.

T2 sequence (Q12809 whole entry): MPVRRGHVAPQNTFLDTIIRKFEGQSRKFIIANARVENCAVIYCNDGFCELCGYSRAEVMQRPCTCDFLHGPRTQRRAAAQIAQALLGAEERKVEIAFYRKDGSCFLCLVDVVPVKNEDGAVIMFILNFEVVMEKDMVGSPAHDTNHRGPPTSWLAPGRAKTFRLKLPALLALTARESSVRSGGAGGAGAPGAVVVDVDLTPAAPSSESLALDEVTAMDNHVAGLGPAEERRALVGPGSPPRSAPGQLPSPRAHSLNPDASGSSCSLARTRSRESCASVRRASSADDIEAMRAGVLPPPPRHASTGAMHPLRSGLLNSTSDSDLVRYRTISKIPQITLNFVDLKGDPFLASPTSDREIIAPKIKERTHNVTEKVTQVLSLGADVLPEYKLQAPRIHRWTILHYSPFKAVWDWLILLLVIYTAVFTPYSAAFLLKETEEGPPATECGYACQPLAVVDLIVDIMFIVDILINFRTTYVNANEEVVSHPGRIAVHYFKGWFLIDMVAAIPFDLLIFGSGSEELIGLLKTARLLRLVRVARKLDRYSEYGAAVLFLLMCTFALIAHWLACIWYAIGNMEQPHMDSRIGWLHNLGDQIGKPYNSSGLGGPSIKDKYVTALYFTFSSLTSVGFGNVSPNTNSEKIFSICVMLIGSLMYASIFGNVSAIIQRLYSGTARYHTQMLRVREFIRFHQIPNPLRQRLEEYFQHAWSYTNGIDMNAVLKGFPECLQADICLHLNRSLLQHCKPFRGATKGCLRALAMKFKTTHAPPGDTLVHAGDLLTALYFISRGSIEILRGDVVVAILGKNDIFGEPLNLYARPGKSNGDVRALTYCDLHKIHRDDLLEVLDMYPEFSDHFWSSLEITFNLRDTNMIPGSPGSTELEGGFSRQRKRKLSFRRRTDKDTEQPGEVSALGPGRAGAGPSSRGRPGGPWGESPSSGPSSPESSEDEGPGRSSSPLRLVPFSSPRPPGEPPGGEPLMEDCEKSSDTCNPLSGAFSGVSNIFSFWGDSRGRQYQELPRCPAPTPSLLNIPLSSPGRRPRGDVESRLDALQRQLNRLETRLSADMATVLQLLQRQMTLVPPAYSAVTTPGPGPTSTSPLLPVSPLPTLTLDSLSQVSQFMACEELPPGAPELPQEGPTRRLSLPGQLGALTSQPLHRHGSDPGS
T1 sequence (Q2M2I8 27-365 limits assumed): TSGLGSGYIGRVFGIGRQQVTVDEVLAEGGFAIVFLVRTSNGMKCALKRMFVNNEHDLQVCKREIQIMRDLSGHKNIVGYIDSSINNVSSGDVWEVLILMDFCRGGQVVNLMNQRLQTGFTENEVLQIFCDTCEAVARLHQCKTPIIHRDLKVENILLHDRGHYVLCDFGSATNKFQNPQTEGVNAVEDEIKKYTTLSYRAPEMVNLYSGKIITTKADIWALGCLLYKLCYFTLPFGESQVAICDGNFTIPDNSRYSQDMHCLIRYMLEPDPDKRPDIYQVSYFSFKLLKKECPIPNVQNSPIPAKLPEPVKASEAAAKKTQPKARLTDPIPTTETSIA

Row | IC50 (AAK1) [nM] | Kp ([1]; male, ICR, mouse, brain/plasma, po, i.g. (10 mg/kg)) | AUC(0-t) ([1]; male, ICR, mouse, plasma, po, i.g. (10 mg/kg), read-out: Plasma AUC0-t) [ng·h/mL] | Brain penetrability (in words) [1] | Brain tissue AUC0-t ([1]; i.g. (10 mg/kg)) [ng·h/g] | F [3] [%] | SMILES | inhibition at 40 µM (hERG potassium channel; human, CHO cells stably expressing hERG potassium channel, at 40 μM, read-out: Inhibition rate at the highest concentration tested (hERG potassium channel current)) [%] | IC50 (hERG potassium channel; read-out: IC50 (hERG potassium channel current)) [nM] | Course of analgesic efficacy over time [2] | Effect on pain threshold (MPT) of mice after SNL modeling [2] | Efficacy compared with LX-9211 ([2]; at 3 and 6 hours after the administration) | Pharmacodynamic activity as an analgesic compared with LX-9211 ([2]; overall conclusion)
1 | 10.9 | 64.5 | 572 | high brain penetrability | 36853 |  | C=C(C)CC(C)(N)COc1ccc(-c2ccnc(C(F)F)c2)nc1C(F)F (single isomer, unassigned) [Compound 2] | 86.6 ± 1.77 | 8750 | tended to be stable | effectively increased the pain threshold | better efficacy than LX-9211 | better pharmacodynamic activity than LX-9211
2 |  |  |  |  |  | 113 ± 6.9 | COC(=O)Nc1cc(-c2ccc(OC[C@@](C)(N)CC(C)(C)F)c(C(F)F)n2)ccn1 [Compound 9] |  |  |  |  |  | 
3 |  |  |  |  | 110424 | 22.2 ± 8.1 | CC(C)C[C@](C)(N)COc1ccc(-c2ccnc(C(F)F)c2)nc1C(F)F [LX-9211, reference compound] |  |  | efficacy gradually decreased thereafter | effectively increased the pain threshold |  | 
4 | 13.7 |  |  |  |  |  | COC(=O)Nc1cc(-c2ccc(OC[C@@](C)(N)CC(C)(C)F)c(C)n2)ccn1 [Compound 10] |  |  |  |  |  | 
